Experimental data reported in US20150343007A1, “EDIBLE COMPOSITION COMPRISING AN EXTRACT OF INULA RACEMOSA AND NARINGIN” (CONOPCO, INC. D/B/A UNILEVER, priority 2012, published 2015).

Biological target: T1, human recombinant Dipeptidyl peptidase-IV (DPP-IV) enzyme (Homo sapiens, UniProt P27487)
T1 construct: purchased PROSPEC ISRAEL ENZ 375
Experiment: Invitro DPP-4 Enzyme Assay (Gly-Pro p-NA substrate, absorbance at 405 nm)
Format: biochemical
Conditions: 4 ng DPP-IV per well, 200 μl/well TRIS-HCl pH 8, 37° C., 1 hr; sample amounts (μg/well) per Table 1; Control 3 = 100% activity
Description: A 96 well plate (NEST Biotechnology Co. Ltd, Cat No 701001) was taken. In each well of 96 well plate extract of Inula racemosa (as prepared above), Naringin (SIGMA, Cat. No: N1376) and the combination of extract of Inula racemosa and naringin were put in varied concentration as per Table 1. In each well, 4 ng of human recombinant Dipeptidyl peptidase-IV (DPP-IV) enzyme (PROSPEC ISRAEL, Cat. No. ENZ 375) was also added. After that, the final volume was made up to 200 μl/well using TRIS-HCl buffer of pH-8. The TRIS-HCl buffer was prepared by adding 2.42 g of TRIS (Tris hydroxyl methyl amino methane; Supplier: Sisco Research Laboratory ltd, Cat No 2044122) base, 0.372 g of EDTA (SIGMA, Cat No E6758) and 5.644 g of NaCl in 900 mL of autoclaved milli-Q water (Millipore® India) and stirred it till it get dissolved (˜30 minutes). After that the pH of the solution was adjusted to 8.0 using HCl acid and then the volume of the solution was made up to 1000 mL with autoclaved milli-Q water.
The enzyme and combinations of extract of Inula racemosa and naringin were mixed for 1 min using microplate reader (BIO-RAD LAB INDIA, Model No. 680) and incubated in an incubator (Thermo Scientific, Model 3111; conditions: at 37° C.) for 10 minutes. After that the enzymatic reaction was initiated by adding 10 μL/well of the 19 mM of substrate Glycine-Proline para nitroanilide (Gly-Pro p-NA) (this is equivalent to GLP-1). Gly-Pro-p NA is a universally accepted and commercially available substrate for the enzyme DPP-4, due to the lack of availability of commercially available chromogenic GLP-1. We have used Gly-Pro-p NA in the assay which is equivalent to GLP-1. […]
All the above reaction mixture was again incubated for 1 hr in the same incubator under the same condition. […] After this the absorbance was measured at a wavelength of 405 nm using microplate reader (BIO-RAD LAB INDIA, Model No. 680). […]
The % activities of the DPP-4 for the other samples were calculated using the following formula:
The % inhibitions by the samples were then calculated by subtracting the activity from 100.

T1 sequence (P27487 whole entry): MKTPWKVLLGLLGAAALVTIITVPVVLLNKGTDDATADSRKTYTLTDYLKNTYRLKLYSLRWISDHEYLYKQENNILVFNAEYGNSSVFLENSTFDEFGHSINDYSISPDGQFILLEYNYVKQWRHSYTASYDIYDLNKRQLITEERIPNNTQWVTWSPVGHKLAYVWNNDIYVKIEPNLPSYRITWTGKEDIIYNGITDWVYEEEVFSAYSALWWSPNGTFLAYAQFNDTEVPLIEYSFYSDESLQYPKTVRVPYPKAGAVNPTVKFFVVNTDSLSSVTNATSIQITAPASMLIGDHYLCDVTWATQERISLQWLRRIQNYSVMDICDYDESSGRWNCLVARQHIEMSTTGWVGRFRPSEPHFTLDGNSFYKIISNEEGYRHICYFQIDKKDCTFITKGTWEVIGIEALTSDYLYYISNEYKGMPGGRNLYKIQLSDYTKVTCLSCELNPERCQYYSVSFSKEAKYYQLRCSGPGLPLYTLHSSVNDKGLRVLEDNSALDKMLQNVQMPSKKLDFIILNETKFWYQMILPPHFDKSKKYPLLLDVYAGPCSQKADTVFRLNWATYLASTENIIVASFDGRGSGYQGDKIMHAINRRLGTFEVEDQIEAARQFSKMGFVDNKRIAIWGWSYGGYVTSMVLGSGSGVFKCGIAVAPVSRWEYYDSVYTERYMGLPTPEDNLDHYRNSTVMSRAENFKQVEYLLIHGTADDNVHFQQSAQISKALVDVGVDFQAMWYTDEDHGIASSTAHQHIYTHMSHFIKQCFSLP

| SMILES | % Inhibition [%] |
| --- | --- |
| C[C@@H]1OC(OC2C(O)[C@H](O)C(CO)O[C@H]2Oc2cc(O)c3c(c2)O[C@H](c2ccc(O)cc2)CC3=O)[C@H](O)C(O)C1O (single isomer, unassigned) [D, 4,5,7-Trihydroxyflavanone 7-rhamnoglucoside] | 18.11 |
| C[C@@H]1O[C@@H](O[C@H]2[C@H](Oc3cc(O)c4c(c3)O[C@H](c3ccc(O)cc3)CC4=O)O[C@H](CO)[C@@H](O)[C@@H]2O)[C@H](O)[C@H](O)[C@H]1O [B, 4,5,7-Trihydroxyflavanone 7-rhamnoglucoside] | 18.54 |
| C[C@@H]1O[C@@H](O[C@H]2[C@H](Oc3cc(O)c4c(c3)O[C@H](c3ccc(O)cc3)CC4=O)O[C@H](CO)[C@@H](O)[C@@H]2O)[C@H](O)[C@H](O)[C@H]1O [C, 4,5,7-Trihydroxyflavanone 7-rhamnoglucoside] | 18.43 |
